According to patent US20040132830A1, “Triphenylmethane kinesin inhibitors” (priority 2001, published 2004):

Experiments:
A549 cells = conditions: cited from earlier work
[1] = test system: Skov-3 cells (human ovarian cancer); experiment: FACS analysis of cell cycle stage by DNA content (mitotic arrest); assay type: cell-based; conditions: treated 24 hours, paclitaxel at 10 nM
Method: FACS analysis to determine cell cycle stage by measuring DNA content was performed as follows. Skov-3 cells (human ovarian cancer) were split 1:10 for plating in 10 cm dishes and grown to subconfluence with RPMI 1640 medium containing 5% fetal bovine serum (FBS). The cells were then treated with either 10 nM paclitaxel, the test compound or 0.25% DMSO (vehicle for compounds) for 24 hours. Cells were then rinsed off the plates with PBS containing 5 mM EDTA, pelleted, washed once in PBS containing 1% FCS, and then fixed overnight in 85% ethanol at 4° C. Before analysis, the cells were pelleted, washed once, and stained in a solution of 10 μg propidium iodide and 250 μg of ribonuclease (RNAse) A per milliliter at 37° C. for half an hour. Flow cytometry analysis was performed on a Becton-Dickinson FACScan, and data from 10,000 cells per sample was analyzed with Modfit software.

Compound: O=c1[nH]cc(F)c(=O)[nH]1 [5-fluorouracil]
- GI50 (A549 cells): 1000 nM

Compound: COc1cccc2c1C(=O)c1c(O)c3c(c(O)c1C2=O)C[C@@](O)(C(=O)CO)C[C@@H]3O[C@H]1C[C@H](N)[C@H](O)[C@H](C)O1 [doxorubicin]
- GI50 (A549 cells): 63 nM

Compound: NC(=O)NO [hydroxyurea]
- GI50 (A549 cells): 500000 nM

Compound: CC(=O)O[C@H]1C(=O)[C@@]2(C)[C@H]([C@H](OC(=O)c3ccccc3)[C@]3(O)C[C@H](OC(=O)[C@H](O)[C@@H](NC(=O)c4ccccc4)c4ccccc4)C(C)=C1C3(C)C)[C@]1(OC(C)=O)CO[C@@H]1C[C@@H]2O [paclitaxel]
- shift of cell population between cell cycle stages (DNA content) [1]: caused a shift in the population of cells from a G0/G1 cell cycle stage (2 n DNA content) to a G2/M cell cycle stage (4 n DNA content)
- GI50 (A549 cells): 4 nM
